Reference: patent US5093256A, “Essentially purified, thermostable and alkalophilic lipase from Bacillus Sp. A30-1 ATCC 53841” (priority 1989, dated 1992)
Like-named read-outs stand apart in the source and are kept apart here.

Test system: Bacillus sp. A30-1 ATCC No. 53841 thermostable lipase
Conditions: 30° C., peroxide removed by dialysis before assay; for residual activity (of the original activity) after incubation with hydrogen peroxide: 0.5% hydrogen peroxide
Description: Lipase production was routinely assayed by monitoring the fatty acid released from corn oil. The assay is based on the fact that the dye Rhodamine 6G in benzene solution reacts with an acid to form a chromophore which can be spectrophotometrically quantified. One tenth mL of cell free culture broth (obtained by removing cells by centrifugation) was mixed with 0.02 mL of a 25% corn oil solution in 100 mM Tris-Hcl buffer (pH 9.5) and then incubated at 60° C. for 1 hr. After appropriate time the reaction was stopped with the addition of 0.1N HCl in 95% ethanol. The resulting fatty acids were extracted with petroleum ether, and evaporated to dryness under vacuum. Subsequently, diluted Rhodamine 6G stock solution was added. After fifteen minutes at room temperature the absorbance of the resulting reaction mixture was read at 515 nm. One unit of lipase is defined as the amount that will liberate 1 μmole of fatty acid per hour under the assay condition.
To an aliquot of enzyme solution containing a known amount of activity, different amounts of hydrogen peroxide were added to final concentration of 0.5, 1, 2, and 4% respectively. These were kept at 30° C. for different periods of time. Then hydrogen peroxide contained in enzyme solution was eliminated by dialysis against water. Residual activities were measured by the analytical methods described above.

SMILES: OO [hydrogen peroxide]
- residual activity (of the original activity) after incubation with hydrogen peroxide (1 hr): 100%
- residual activity (of the original activity) after incubation with hydrogen peroxide (19 hrs): 60%
- residual activity after incubation with hydrogen peroxide (4% hydrogen peroxide, 5 hrs): 75%
